Laboratory results taken from patent US20100168112A1, “2-Substituted and 4-substituted aryl nitrone compounds” (RENOVIS, INC., priority 2004, published 2010).
Where two headings read alike, the source gives them in different places.

What was measured:
[1] = Brain penetration after single oral dose in rats; assay type: in vivo; settings: Sprague-Dawley, rat, single oral dose (compound 26 5 mg/kg, 62 15 mg/kg, 20, 63 and 66 50 mg/kg), at or near Tmax
Protocol: Nitrone compounds of this invention were formulated individually as suspensions and administered as a single dose to Sprague-Dawley rats via oral gavage (compound 26 at 5 mg/kg, compound 62 at 15 mg/kg, compounds 20, 63 and 66 at 50 mg/kg). Plasma samples were obtained at or near Tmax projected at the given dose for each compound and the animals were euthanized using carbon dioxide. Immediately following euthanization, cerebrospinal fluid (CSF) was obtained by cisternal puncture of the atlanto-occipital membrane and drawn from the magnum cisternum. The brain was first perfused intracardially with ˜150 mL of ice-cold 0.1 M Phosphate Buffered Saline (PBS) at pH7.4. Following the removal of the dura, the brain was weighed. The brain was then dissected into smaller pieces and rinsed twice with ˜10 mL PBS. The brain, CSF, and plasma samples were frozen on dry ice and stored at −80° C. before analysis. CSF and plasma samples were subjected to a protein precipitation method prior to LC/MS/MS analysis. Blank rat plasma and CSF were used accordingly for diluting the samples when needed. Bioanalytical standard curves were prepared by spiking a stock solution of the nitrone compound to blank rat plasma or CSF to achieve a quantitation curve range and analyzed the standards in the same manner as the samples. Brain samples underwent homogenization in 2 mL water and liquid-liquid extraction with ethyl acetate three times. The combined organic phase for each sample was evaporated under a stream of nitrogen at 40° C. and the residues were reconstituted with an appropriate amount of mobile phase B (referring to LC/MS/MS method section). A bioanalytical standard curve for brain analysis was prepared by spiking 100 μL of stock solution directly into sliced blank rat brain purchased from Pelfreez. The spiked brains then underwent the same processing procedures for the dosed samples.
The reconstituted samples were vortexed and incubated to fully dissolve the analytes. The samples were centrifuged, and then further diluted with Mobile phase B if necessary before LC/MS/MS analysis. Nitrone compound levels in the brain were calculated based on the measured concentration, the volume of reconstitution and brain weight to yield a unit of ng (of compound) per g of brain. To calculate the brain/plasma ratio (w/v), it was assumed that 1 g of brain tissue takes approximately 1 mL of volume.

[2] = tested on: carrageenan-sensitized inflammatory model of rat; assay: Carrageenan-sensitized thermal hyperalgesia (Hargreaves test); assay type: in vivo; settings: 50 mg/kg oral; for PWL (thermal paw withdrawal latency), carrageenan paw: mean ± SEM
Protocol: In this experiment, animals were habituated to the test environment for 2 days. Each rat was individually placed on a transparent perplex glass floor, covered with a plastic box (10×10×18 cm), and allowed 0.5-1 hr to habituate. After the acclimation period, basal thermal withdrawal latency (PWL, time interval between heat stimulation and paw withdrawal) was measured by exposing the plantar surface of a rats hind paw to a beam of radiant heat generated from a focused projection bulb through a transparent perplex glass surface (Hargreaves test; Hargreaves, K. R., Dubner, R., Brown, F., Flores, C. & Joris, J.: A new and sensitive method for measuring thermal nociception in cutaneous hyperalgesia. Pain, 32: 77-88, 1988). The PWL was averaged from at least two trials separated by a 2 min interval. A timer was used to measure the withdrawal latency and a cut of time of 20-sec was used to prevent tissue damage. Before the test on STZ-diabetic rats, the intensity of the radiating heat was adjusted to the level that caused naive animal to withdraw its paw at around 10 seconds.
After a stable basal PWL was obtained, the animals were briefly anesthetized with isoflurane (2-5% to effect). One side of their hind paws received an intraplantar injection of lambda carrageenan (2 mg in 100 microliter sterile saline, Sigma, St. Louis, Mo.). The contralateral side received no injection and served as an intra-subject control. The animals were then returned to their home cages and transferred to the individual testing chambers for heat thermal hyperalgesic testing, 2.5 hr after carrageenan injection. 3-hr post-carrageenan injection, PWLs of both hind paws (i.e., ipsilateral and contralateral) were measured at several time points post-carrageenan injection (15-min to 24-hr).
For compound testing, rats were randomly enrolled into groups that, immediately after the 3-hr post-carrageenan PWL was obtained, received oral dosing of Compound 62 (50 mg/kg), Compound 63 (50 mg/kg), vehicle (1 ml/kg), or indomethacin (30 mg/kg). Compound 62 and Compound 63 were prepared as a suspension in vehicle (96% of 0.5% CMC and 4% of 10% Tween 80) while indomethacin was prepared as a 30 mg/ml in normal saline.

[3] = CSF and plasma, read-out: CSF/Plasma (%)
[4] = brain and plasma, 1 g brain assumed 1 mL, read-out: Brain/Plasma (%)
[5] = post-dosing time 0 min (3 hr post-carrageenan)

Compound | Kp [1, 3] | Kp [1, 4] | effect on carrageenan-sensitized heat hyperalgesia compared to vehicle-treated carrageenan-paw (in words) [2] | PWL (thermal paw withdrawal latency), carrageenan paw [2, 5] [s] | PWL (thermal paw withdrawal latency), carrageenan paw ([2]; post-dosing time 15 min) [s] | PWL (thermal paw withdrawal latency), carrageenan paw ([2]; post-dosing time 120 min) [s] | PWL (thermal paw withdrawal latency), carrageenan paw ([2]; post-dosing time 240 min) [s] | PWL (thermal paw withdrawal latency), carrageenan paw ([2]; post-dosing time 1400 min) [s] | PWL (thermal paw withdrawal latency), carrageenan paw ([2]; post-dosing time 60 min) [s] | PWL (thermal paw withdrawal latency), carrageenan paw ([2]; post-dosing time 180 min) [s]
CC(C)(C)/[N+]([O-])=C/c1ccc(S(N)(=O)=O)cc1 [Compound 20, N-(tert-Butyl)-C-[4-(sulfamoyl)phenyl]nitrone] | 0.144 | 0.229 |  |  |  |  |  |  |  | 
CC(C)(C)/[N+]([O-])=C/c1ccc(S(=O)(=O)Nc2cccnc2)cc1 [Compound 26, N-(tert-Butyl)-C-[4-(pyridin-3-ylsulfamoyl)phenyl]nitrone] | 0.0012 | 0.0056 |  |  |  |  |  |  |  | 
CC(C)(C)/[N+]([O-])=C/c1ccc(S(C)(=O)=O)cc1 [Compound 62, N-tert-Butyl-C-[4-(methanesulfonyl)phenyl]nitrone] | 0.786 | 0.625 | statistically significant effect | 4.65 ± 0.63 | 7.33 ± 1.43 | 7.55 ± 1.08 | 5.38 ± 1.11 | 5.33 ± 1.09 |  | 

The next lines start with results.

Kp [1, 3] | Kp [1, 4] | Compound | effect on carrageenan-sensitized heat hyperalgesia compared to vehicle-treated carrageenan-paw (in words) [2] | PWL (thermal paw withdrawal latency), carrageenan paw [2, 5] [s] | PWL (thermal paw withdrawal latency), carrageenan paw ([2]; post-dosing time 15 min) [s] | PWL (thermal paw withdrawal latency), carrageenan paw ([2]; post-dosing time 120 min) [s] | PWL (thermal paw withdrawal latency), carrageenan paw ([2]; post-dosing time 240 min) [s] | PWL (thermal paw withdrawal latency), carrageenan paw ([2]; post-dosing time 1400 min) [s] | PWL (thermal paw withdrawal latency), carrageenan paw ([2]; post-dosing time 60 min) [s] | PWL (thermal paw withdrawal latency), carrageenan paw ([2]; post-dosing time 180 min) [s]
0.336 | 0.189 | CC(C)(C)/[N+]([O-])=C/c1ccc(S(C)(=O)=O)cc1S(C)(=O)=O [Compound 63, N-tert-Butyl-C-(2,4-bis-methanesulfonylphenyl)nitrone] | statistically significant effect | 4.98 ± 0.85 | 4.93 ± 1.22 |  |  | 5.70 ± 0.71 | 4.15 ± 1.04 | 3.65 ± 0.64
0.936 | 0.224 | CC(C)(C)/[N+]([O-])=C/c1ccccc1S(C)(=O)=O [Compound 66, N-tert-Butyl-C-(2-methanesulfonylphenyl)nitrone] |  |  |  |  |  |  |  | 
